Test results: ChEMBL document CHEMBL2406942, “Design, synthesis and neuroprotective evaluation of novel tacrine-benzothiazole hybrids as multi-targeted compounds against Alzheimer's disease” (Bioorg Med Chem, 2013)
The source made the active and inactive calls. The calls are words filed in the database; no cut-off is given here.

Columns and labels:
[1] = system: Radical scavenging activity; assay: Antioxidant activity assessed as DPPH free radical scavenging activity at 1 mM after 30 mins by spectrophotometric analysis relative to control; type: functional
[2] = system: Radical scavenging activity
Description: Antioxidant activity assessed as DPPH free radical scavenging activity after 30 mins by spectrophotometric analysis

Acetylcholinesterase = Acetylcholinesterase (Electrophorus electricus, UniProt O42275)
Sequence of Acetylcholinesterase (O42275 whole entry): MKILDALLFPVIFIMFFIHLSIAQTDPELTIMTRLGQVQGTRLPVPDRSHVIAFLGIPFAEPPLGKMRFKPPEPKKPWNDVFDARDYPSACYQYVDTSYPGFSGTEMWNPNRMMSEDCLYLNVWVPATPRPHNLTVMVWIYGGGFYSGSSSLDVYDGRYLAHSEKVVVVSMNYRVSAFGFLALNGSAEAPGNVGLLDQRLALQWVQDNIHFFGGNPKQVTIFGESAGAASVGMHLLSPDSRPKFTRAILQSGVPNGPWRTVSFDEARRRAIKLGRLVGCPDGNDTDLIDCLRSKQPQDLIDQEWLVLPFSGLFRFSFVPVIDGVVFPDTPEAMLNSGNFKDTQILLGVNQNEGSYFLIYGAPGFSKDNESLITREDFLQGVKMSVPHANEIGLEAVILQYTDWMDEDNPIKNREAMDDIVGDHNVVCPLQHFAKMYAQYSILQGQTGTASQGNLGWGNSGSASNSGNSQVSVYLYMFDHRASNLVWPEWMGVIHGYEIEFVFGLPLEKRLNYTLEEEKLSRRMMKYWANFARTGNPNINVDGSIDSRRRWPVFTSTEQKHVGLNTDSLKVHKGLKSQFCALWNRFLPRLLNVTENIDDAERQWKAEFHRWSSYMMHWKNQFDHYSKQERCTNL
Description: Inhibition of electric eel AChE using acetylcholine iodide as substrate preincubated for 15 mins prior to substrate addition by Ellman's method

[3] = molecular target: Amyloid-beta precursor protein (Homo sapiens) (UniProt P05067); assay: Neuroprotective activity against amyloid beta (1 to 42)-induced toxicity in mild cognitive impairment patient platelet-SH-SY5Y cell cybrid at 2.5 uM preincubated for 3 hrs by MTT assay; type: functional, cell-based
Sequence of Amyloid-beta precursor protein (Homo sapiens) (P05067 whole entry): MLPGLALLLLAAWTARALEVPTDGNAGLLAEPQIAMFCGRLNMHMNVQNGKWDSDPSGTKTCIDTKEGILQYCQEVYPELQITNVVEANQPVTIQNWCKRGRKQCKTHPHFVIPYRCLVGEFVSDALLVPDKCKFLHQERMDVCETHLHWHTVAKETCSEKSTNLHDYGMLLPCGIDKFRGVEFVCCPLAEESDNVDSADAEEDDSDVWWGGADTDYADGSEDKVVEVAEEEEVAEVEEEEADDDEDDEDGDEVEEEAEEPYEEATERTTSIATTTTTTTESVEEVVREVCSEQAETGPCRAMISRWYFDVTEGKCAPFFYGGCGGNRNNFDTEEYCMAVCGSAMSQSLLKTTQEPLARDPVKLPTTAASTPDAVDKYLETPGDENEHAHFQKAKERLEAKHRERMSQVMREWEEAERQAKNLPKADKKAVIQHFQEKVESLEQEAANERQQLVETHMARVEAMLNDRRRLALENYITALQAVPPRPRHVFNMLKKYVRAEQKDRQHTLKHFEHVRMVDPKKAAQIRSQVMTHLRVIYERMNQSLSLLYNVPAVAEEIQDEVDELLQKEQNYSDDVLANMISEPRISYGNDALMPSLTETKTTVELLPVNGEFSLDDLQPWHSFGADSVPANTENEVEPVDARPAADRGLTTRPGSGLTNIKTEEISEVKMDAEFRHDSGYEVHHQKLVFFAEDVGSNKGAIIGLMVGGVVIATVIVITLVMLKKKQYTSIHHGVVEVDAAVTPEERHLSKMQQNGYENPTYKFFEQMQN

[4] = molecular target: Amyloid-beta precursor protein (Homo sapiens) (UniProt P05067); assay: Neuroprotective activity against amyloid beta (1 to 42)-induced toxicity in human SH-SY5Y cells at 2.5 uM preincubated for 3 hrs by MTT assay; type: functional, cell-based
[5] = molecular target: Amyloid-beta precursor protein (Homo sapiens) (UniProt P05067); assay: Neuroprotective activity against amyloid beta (1 to 42)-induced toxicity in Alzheimer's disease patient platelet-SH-SY5Y cell cybrid at 2.5 uM preincubated for 3 hrs by MTT assay; type: functional, cell-based
[6] = system: Radical scavenging activity; assay: Antioxidant activity assessed as DPPH free radical scavenging activity at 1.22 mM after 30 mins by spectrophotometric analysis relative to control; type: functional
[7] = system: Radical scavenging activity; assay: Antioxidant activity assessed as DPPH free radical scavenging activity at 1.32 mM after 30 mins by spectrophotometric analysis relative to control; type: functional
[8] = molecular target: Amyloid-beta precursor protein (Homo sapiens) (UniProt P05067); assay: Neuroprotective activity against amyloid beta (1 to 42)-induced toxicity in normal cognition human platelet-SH-SY5Y cell cybrid at 2.5 uM preincubated for 3 hrs by MTT assay; type: functional, cell-based

O=C(CCCCCNc1c2c(nc3ccccc13)CCCC2)Nc1ccc(Cc2nc3ccccc3s2)cc1
Activity [1]: 25%
EC50 [2]: > 1000 µM
IC50 (Acetylcholinesterase): 0.57 µM

O=C(CCCCCNc1c2c(nc3ccccc13)CCCC2)NCc1ccc(-c2nc3ccccc3s2)cc1
Activity [1]: 25%
EC50 [2]: > 1000 µM
IC50 (Acetylcholinesterase): 1.84 µM

O=C(CCCCCNc1c2c(nc3ccccc13)CCCC2)NCCCCCc1nc2ccccc2s1
Activity [1]: 25%
Activity [3]: Active
EC50 [2]: > 1000 µM
IC50 (Acetylcholinesterase): 0.76 µM
Activity [4]: Active
Activity [5]: Active

O=C(CCCCCNc1c2c(nc3ccccc13)CCCC2)NCCCc1nc2ccccc2s1
Activity [1]: 25%
Activity [3]: Active
Activity [6]: 25%
IC50 (Acetylcholinesterase): 0.96 µM
Activity [4]: Active
Activity [5]: Active

O=C(CCCCCNc1c2c(nc3ccccc13)CCCC2)Nc1ccc(-c2nc3ccccc3s2)cc1
Activity [1]: 25%
Activity [7]: 32%
IC50 (Acetylcholinesterase): 0.34 µM
Activity [8]: Active
